Broadly, the EC50 is the midpoint of the concentration-response curve. A high value points to a less potent agent. For orientation: IC50 means the concentration at which inhibition is half-maximal. Low values mean inhibition by little substance, high ones a need for much substance.

Our source for the EC50 and IC50 values is patent US10752588B2 (The Broad Institute, Inc., priority 2014, dated 2020).

Assay [1] concerns the target T1, human D2R/β-arrestin (Homo sapiens (Human), UniProt P14416). Nature of the assay: β-Arrestin agonist assay (PathHunter). The format is cell-based. The note with it: CHO-K1 cell line expressing human D2R/β-arrestin. The procedure:
(§1) The assays can be performed using proper detection reagents either prepared using routine methods known in the art or commercially available (e.g., PathHunter® β-Arrestin Detecting Kit (DiscoveRX)). Cells are grown to the necessary confluence and then detached. The cells are then centrifuged, washed, resuspended, and seeded into a container (e.g., 384-well plate). The cells are incubated (e.g., at 37° C., 5% CO2) for the appropriate period of time (e.g., 24 hours), before various compounds (e.g., a compound of the invention or a control compound) are added to the cells. After incubation of the cells with the compounds, detection reagents (e.g., a buffer containing Emerald II: Galactor-Star as provided DiscoveRX) are added to the cells. The read-out (e.g., luminescence, or fluorescence) is detected using standard equipment.
The detection reagent (9.6 μL, Buffer:Emerald II:Galactor-Star in a 19:5:1 ratio, i.e., 14.06 mL:3.7 mL:0.74 mL=18.5 mL) was then added to the agonist plates.

Assay [2] has as its target T1, human D2R/β-arrestin. Nature of the assay: cell-based. The settings on record: cAMP Antagonist, CHO-K1 cell line expressing human D2R/β-arrestin; quinpirole used as agonist.
The target in assay [3] is T1, human D2R/β-arrestin. Nature of the assay: cell-based. The settings on record: β-arrestin Antagonist, CHO-K1 cell line expressing human D2R/β-arrestin; quinpirole used as agonist.
Method: The detection reagents are then added, and the read-out is detected.
Cells were prepared for assays by growing cultures for up to 2 weeks (from about 6-20 passages). A vial of frozen cells was thawed in a water bath held at 37° C. The cells were then transferred into a 50 ml tube with 10 ml growth media. The vial was rinsed with growth media and the contents transferred to the 50 ml tube. The 50 ml tube was centrifuged at 1200 rpm for 5 minutes at room temperature. […] When the cells reached about 90% confluence (approximately 3 days between passages), the cells were passaged and used for either the agonist or antagonist assays as described below.
The cells were prepared for β-arrestin assays as described above. The assays were performed using a PathHunter® β-Arrestin Detecting Kit (DiscoveRX). The cells were grown on 225 mm dishes, then washed once with 1×PBS (Cellgro), followed by digestion with 2.5 ml 1× Detachment reagent (DRX 92-0009) for approximately 2 minutes.
Assay [4] deals with T1, human D2R/β-arrestin. Nature of the assay: Gi/cAMP agonist assay (Lance Ultra cAMP, Forskolin). The note with it: CHO-K1 cell line expressing human D2R/β-arrestin. Type of assay: cell-based. On the procedure:
as §1, with “PE Lance Ultra cAMP kit (TRF0263)).” for “PathHunter® β-Arrestin Detecting Kit (DiscoveRX)).”, “Afterwards, cAMP inducing agents (e.g., Forskolin) are added to and incubated with” for “After incubation of”, “before” for “with the compounds,”, “cAMP antibody, such” for “buffer containing Emerald II: Galactor-Star”, “ULight-anti-cAMP solution)” for “provided DiscoveRX)”, “Read-out” for “The read-out”
Compounds were pin-transferred (100 nL) to the cells, and incubated for 10 min. at 37° C. […] Eu-cAMP tracer solution (100, PerkinElmer, […] in 17.64 ml kit buffer) and ULight-anti-cAMP solution (100, 120 μL antibody in 17.88 ml kit buffer) was then added to each well.

T1 sequence (P14416 whole entry): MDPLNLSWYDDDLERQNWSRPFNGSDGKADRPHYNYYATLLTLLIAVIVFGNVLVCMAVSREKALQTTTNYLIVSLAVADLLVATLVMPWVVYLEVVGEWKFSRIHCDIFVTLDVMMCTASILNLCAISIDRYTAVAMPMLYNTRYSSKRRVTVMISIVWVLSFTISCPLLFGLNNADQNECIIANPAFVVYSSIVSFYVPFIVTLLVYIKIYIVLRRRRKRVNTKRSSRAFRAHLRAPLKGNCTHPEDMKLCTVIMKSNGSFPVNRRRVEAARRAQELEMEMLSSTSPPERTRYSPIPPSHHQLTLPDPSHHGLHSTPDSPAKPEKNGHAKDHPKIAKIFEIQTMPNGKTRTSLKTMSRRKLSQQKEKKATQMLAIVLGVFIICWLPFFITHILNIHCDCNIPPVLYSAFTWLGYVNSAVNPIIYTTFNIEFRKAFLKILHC

Turning to `O=C(NC(c1ccc(Cl)cc1)c1ccc(F)cn1)C1CCN(CCOc2ccccc2)CC1` (centres unmarked) [Compound 116, N-((4-chlorophenyl)(5-fluoropyridin-2-yl)methyl)-1-(2-phenoxyethyl)piperidine-4-carboxamide], the EC50 at human D2R/β-arrestin [1] was above 30 µM; on human D2R/β-arrestin [4], 100 to 1000 nM. Besides, the IC50 was above 30 µM on human D2R/β-arrestin [2] and 1000 to 10000 nM at human D2R/β-arrestin [3].

With `O=C(NC(c1ccccn1)c1ccccn1)C1CCN(CCOc2ccccc2)CC1` [Compound 30, N-(di(pyridin-2-yl)methyl)-1-(2-phenoxyethyl)piperidine-4-carboxamide], the EC50 on human D2R/β-arrestin [1] is above 30 µM; on human D2R/β-arrestin [4], 1000 to 10000 nM. In addition, the half-inhibitory concentration (IC50) at human D2R/β-arrestin [2] is above 30 µM; at human D2R/β-arrestin [3], 10000 to 30000 nM.

In the case of `O=C(NC(c1ccc(Cl)cc1)c1ccccn1)C1CCN(CCOc2c(F)cccc2F)CC1` (centres unmarked) [Compound 67, N-((4-chlorophenyl)(pyridin-2-yl)methyl)-1-(2-(2,6-difluorophenoxy)ethyl)piperidine-4-carboxamide], the EC50 is above 30 µM on human D2R/β-arrestin [1] and above 30000 nM on human D2R/β-arrestin [4]. Also, the results for the IC50 on human D2R/β-arrestin [2] and at human D2R/β-arrestin [3] were below 0.1 µM and 100 to 1000 nM, respectively.

For `CC1(C(=O)NC(c2ccc(F)cc2)c2ccccn2)CCN(CCOc2ccccc2C(F)(F)F)CC1` (centres unmarked) [Compound 70, N-((4-fluorophenyl)(pyridin-2-yl)methyl)-4-methyl-1-(2-(2-(trifluoromethyl)phenoxy)ethyl) piperidine-4-carboxamide], the EC50 on human D2R/β-arrestin [1] is above 30 µM; on human D2R/β-arrestin [4], 100 to 1000 nM. The IC50 at human D2R/β-arrestin [2] fell in the range of 0.1 to 1 µM; on human D2R/β-arrestin [3] it was 100 to 1000 nM.

Regarding `CN(CC1CCN(CCOc2ccccc2)CC1)C(c1ccc(F)cc1)c1ccccn1` (centres unmarked) [Compound 74, 1-(4-fluorophenyl)-N-methyl-N-((1-(2-phenoxyethyl)piperidin-4-yl)methyl)-1-(pyridin-2-yl)methanamine], the EC50 is above 30 µM on human D2R/β-arrestin [1] and below 100 nM at human D2R/β-arrestin [4]. Further, the results for the 50% inhibitory concentration (IC50) on human D2R/β-arrestin [2] and at human D2R/β-arrestin [3] were 0.1 to 1 µM and 100 to 1000 nM, respectively.

Turning to `CC(C)N(CC1CCN(CCOc2ccccc2F)CC1)C(c1ccc(Cl)cc1)c1ccccn1` (single isomer, unassigned) [Compound 133b, N-((4-chlorophenyl)(pyridin-2-yl)methyl)-N-((1-(2-(2-fluorophenoxy)ethyl)piperidin-4-yl)methyl)propan-2-amine], the EC50 at human D2R/β-arrestin [1] is below 0.1 µM; at human D2R/β-arrestin [4] it was below 100 nM. Moreover, the IC50 at human D2R/β-arrestin [2] was above 30 µM; on human D2R/β-arrestin [3], 100 to 1000 nM.

For the compound `CC(=O)N(CC1CCN(CCOc2ccccc2)CC1)C(c1ccc(Cl)cc1)c1ccccn1` (centres unmarked) [Compound 107, N-((4-chlorophenyl)(pyridin-2-yl)methyl)-N-((1-(2-phenoxyethyl)piperidin-4-yl)methyl) acetamide], the EC50 at human D2R/β-arrestin [1] is above 30 µM; at human D2R/β-arrestin [4], 100 to 1000 nM. Further, the concentration for half-maximal inhibition (IC50) at human D2R/β-arrestin [2] was above 30 µM; at human D2R/β-arrestin [3], 100 to 1000 nM.

As for `CC(C)N(CC1CCN(CCOc2ccccc2F)CC1)C(c1ccc(Cl)cc1)c1ccccn1` (single isomer, unassigned) [Compound 133a, N-((4-chlorophenyl)(pyridin-2-yl)methyl)-N-((1-(2-(2-fluorophenoxy)ethyl)piperidin-4-yl)methyl)propan-2-amine], the EC50 is above 30 µM at human D2R/β-arrestin [1] and above 30000 nM on human D2R/β-arrestin [4]. Further, the figures for the 50% inhibitory concentration (IC50) at human D2R/β-arrestin [2] and on human D2R/β-arrestin [3] were below 0.1 µM and below 100 nM, respectively.

With `CN(CC1CCN(CCOc2ccccc2)CC1)C(c1ccc(F)cc1)c1ccccn1` (single isomer, unassigned) [Compound 74a, 1-(4-fluorophenyl)-N-methyl-N-((1-(2-phenoxyethyl)piperidin-4-yl)methyl)-1-(pyridin-2-yl)methanamine], the EC50 was above 30 µM at human D2R/β-arrestin [1] and 1000 to 10000 nM on human D2R/β-arrestin [4]. Besides, the IC50 is above 30 µM at human D2R/β-arrestin [2] and 1000 to 10000 nM on human D2R/β-arrestin [3].

As to `O=C(NC(c1ccccc1F)c1ccccc1F)C1CCN(CCOc2ccccc2)CC1` [Compound 48, N-(bis(2-fluorophenyl)methyl)-1-(2-phenoxyethyl)piperidine-4-carboxamide], the EC50 at human D2R/β-arrestin [1] is above 30 µM; at human D2R/β-arrestin [4] it was 1000 to 10000 nM. Besides, the IC50 was above 30 µM at human D2R/β-arrestin [2] and 1000 to 10000 nM on human D2R/β-arrestin [3].

On to `O=C(NC(c1ccc(F)cc1)c1ccccc1F)C1CCN(CCOc2ccccc2)CC1` (centres unmarked) [Compound 49, N-((2-fluorophenyl)(4-fluorophenyl)methyl)-1-(2-phenoxyethyl)piperidine-4-carboxamide], for which the values for the EC50 at human D2R/β-arrestin [1] and at human D2R/β-arrestin [4] were above 30 µM and 1000 to 10000 nM, respectively. Further, the IC50 at human D2R/β-arrestin [2] fell in the range of 1 to 10 µM; at human D2R/β-arrestin [3] it was 100 to 1000 nM.

With `Fc1ccccc1OCCN1CCC(CNC(c2ccc3c(c2)OCO3)c2ccccn2)CC1` (single isomer, unassigned) [Compound 139a, 1-(benzo[d][1,3]dioxol-5-yl)-N-((1-(2-(2-fluorophenoxy)ethyl)piperidin-4-yl)methyl)-1-(pyridin-2-yl)methanamine], the 50% effective concentration (EC50) on human D2R/β-arrestin [1] was above 30 µM; at human D2R/β-arrestin [4] it was below 100 nM. The IC50 on human D2R/β-arrestin [2] fell in the range of 0.1 to 1 µM; on human D2R/β-arrestin [3], 100 to 1000 nM.

Take `COc1cccc(C(NCC2CCN(CCOc3ccccc3)CC2)c2ccccn2)c1` (centres unmarked) [Compound 80, 1-(3-methoxyphenyl)-N-((1-(2-phenoxyethyl)piperidin-4-yl)methyl)-1-(pyridin-2-yl)methanamine]: the 50% effective concentration (EC50) was above 30 µM at human D2R/β-arrestin [1] and 100 to 1000 nM on human D2R/β-arrestin [4]. In addition, the IC50 on human D2R/β-arrestin [2] fell in the range of 1 to 10 µM; at human D2R/β-arrestin [3], 1000 to 10000 nM.

Regarding `CN(CC1CCN(CCOc2ccccc2)CC1)C(c1ccc(F)cc1)c1ccccn1` (single isomer, unassigned) [Compound 74b, 1-(4-fluorophenyl)-N-methyl-N-((1-(2-phenoxyethyl)piperidin-4-yl)methyl)-1-(pyridin-2-yl)methanamine], the EC50 at human D2R/β-arrestin [1] was above 30 µM; on human D2R/β-arrestin [4] it was 100 to 1000 nM. The IC50 on human D2R/β-arrestin [2] lay within 0.1 to 1 µM; at human D2R/β-arrestin [3], 100 to 1000 nM.

For `COc1cccc(C(NC(=O)C2CCN(CCOc3ccc(F)cc3F)CC2)c2ccccn2)c1` (single isomer, unassigned) [Compound 145a, 1-(2-(2,4-difluorophenoxy)ethyl)-N-((3-methoxyphenyl)(pyridin-2-yl)methyl)piperidine-4-carboxamide], the EC50 at human D2R/β-arrestin [1] is above 30 µM; on human D2R/β-arrestin [4] it was above 30000 nM. In addition, the IC50 at human D2R/β-arrestin [2] was in the range of 1 to 10 µM; on human D2R/β-arrestin [3], 10000 to 30000 nM.

Take `COc1ccccc1C(NC(=O)C1CCN(CCOc2ccccc2)CC1)c1ccccn1` (centres unmarked) [Compound 36, N((2-methoxyphenyl)(pyridin-2-yl)methyl)-1-(2-phenoxyethyl) piperidine-4-carboxamide]: the EC50 on human D2R/β-arrestin [1] is above 30 µM; on human D2R/β-arrestin [4], above 30000 nM. The IC50 at human D2R/β-arrestin [2] is above 30 µM; at human D2R/β-arrestin [3] it was 10000 to 30000 nM.

Consider `c1ccc(OCCN2CCC(CNC(c3ccc4c(c3)OCO4)c3ccccn3)CC2)cc1` (single isomer, unassigned) [Compound 102a, 1-(benzo[d][1,3]dioxol-5-yl)-N-((1-(2-phenoxyethyl)piperidin-4-yl)methyl)-1-(pyridin-2-yl)methanamine], for which the EC50 is above 30 µM on human D2R/β-arrestin [1] and above 30000 nM on human D2R/β-arrestin [4]. Moreover, the figures for the IC50 on human D2R/β-arrestin [2] and at human D2R/β-arrestin [3] were 1 to 10 µM and 1000 to 10000 nM, respectively.

Regarding `O=C(NC(c1ccc2c(c1)OC(F)(F)O2)c1ccccn1)C1CCN(CCOc2ccc(F)cc2F)CC1` (centres unmarked) [Compound 130, N-((2,2-difluorobenzo[d][1,3]dioxol-5-yl)(pyridin-2-yl)methyl)-1-(2-(2,4-difluorophenoxy)ethyl)piperidine-4-carboxamide], the values for the EC50 at human D2R/β-arrestin [1] and on human D2R/β-arrestin [4] were 0.1 to 1 µM and below 100 nM, respectively. For the same compound, the results for the IC50 at human D2R/β-arrestin [2] and on human D2R/β-arrestin [3] were above 30 µM and 1000 to 10000 nM, respectively.

For the compound `O=C(NC(c1ccccc1)c1ccccn1)C1CCN(CCOc2ccccc2)CC1` (centres unmarked) [Compound 113, 1-(2-phenoxyethyl)-N-(phenyl(pyridin-2-yl)methyl)piperidine-4-carboxamide], the concentration for a half-maximal effect (EC50) was above 30 µM on human D2R/β-arrestin [1] and below 100 nM on human D2R/β-arrestin [4]. The IC50 on human D2R/β-arrestin [2] is above 30 µM; on human D2R/β-arrestin [3] it was 1000 to 10000 nM.

With `COc1cccc(C(NC(=O)C2(C)CCN(CCOc3ccccc3)CC2)c2ccccn2)c1` (centres unmarked) [Compound 143, N-((3-methoxyphenyl)(pyridin-2-yl)methyl)-4-methyl-1-(2-phenoxyethyl)piperidine-4-carboxamide], the 50% effective concentration (EC50) was in the range of 1 to 10 µM at human D2R/β-arrestin [1] and 100 to 1000 nM at human D2R/β-arrestin [4]. Moreover, the IC50 on human D2R/β-arrestin [2] is above 30 µM; at human D2R/β-arrestin [3], 1000 to 10000 nM.
